Organism: Rattus norvegicus
Assay: Concentration that produces 50% displacement of [3H]-kainic acid from nerve cell membrane receptor sites
Type: functional
Compound `C/C(=C\c1cccc([N+](=O)[O-])c1)C1CN[C@H](C(=O)O)C1CC(=O)O` (some centres undefined) has an IC50 of 79.4 nM. `C/C(=C/c1cccc([N+](=O)[O-])c1)C1CN[C@H](C(=O)O)C1CC(=O)O` (some centres undefined) gave an IC50 of 417 nM. In the case of `CC(C)[C@H]1CN[C@H](C(=O)O)[C@H]1CC(=O)O` [DIHYDROKAINATE], the IC50 is reported as 646 nM. `C=C(C)[C@H]1CN[C@H](C(=O)O)[C@H]1CC(=O)O` [KAINIC ACID] gave an IC50 of 17.8 nM.

— ChEMBL document CHEMBL1122597, “Palladium (II)-catalyzed olefin-coupling reactions of kainic acid: effects of substitution on the isopropenyl group on receptor binding” (J Med Chem, 1984)
